According to patent publication US4950647A, “T cell immunopotentiator” (Nucleic Acid Research Institute, priority 1988, dated 1990):

Assays:
[1] = Immune system enhancement / suppression; settings: β analog: at the same concentrations at which the compound is immunostimulatory
[2] = test system: human lymphocytes (peripheral blood mononuclear cells); settings: known; cited from earlier work
[3] = test system: B cells; settings: predominantly a subset of mature B lymphocytes; cited from earlier work
[4] = test system: macrophages and NK cells; settings: cited from earlier work

SMILES	immunosuppressive / immune enhancing effect [1]	activation of lymphocytes to proliferate [2]	stimulation of B cell proliferation [3]	activation of macrophages and NK cells [4]
Nc1cc2c(ncn2[C@@H]2O[C@H](CO)[C@@H](O)[C@H]2O)c(=O)[nH]1 [3-deazaguanosine]	not immune system enhancers	–	–	–
Nc1nc2c(nc(Br)n2[C@@H]2O[C@H](CO)[C@@H](O)[C@H]2O)c(=O)[nH]1 [8-bromoguanosine]	–	activate lymphocytes to proliferate	stimulate proliferation of B cells	activate macrophages and NK cells
Nc1nc2c(nc(S)n2[C@@H]2O[C@H](CO)[C@@H](O)[C@H]2O)c(=O)[nH]1 [8-mercaptoguanosine]	–	activate lymphocytes to proliferate	stimulate proliferation of B cells	–
Nc1nc2c(ncn2[C@H]2C[C@H](O)[C@@H](CO)O2)c(=O)[nH]1 [2'-deoxyguanosine]	not immune system enhancers	–	–	–
Nc1cc2c(ncn2[C@H]2C[C@H](O)[C@@H](CO)O2)c(=O)[nH]1 [2'-deoxy-3-deazaguanosine]	immunosuppressive	–	–	–
